Experimental data taken from patent publication US9211336B2, “Antioxidant stabilized pharmaceutical formulations comprising antineoplastic compounds” (Hikma Pharmaceuticals, priority 2013, dated 2015).

Experiments:
[1] = only stable in acidic conditions; cited from earlier work
[2] = Effect of controlled preparation temperature on dissolution of temozolomide
[3] = Stability study, effect of pH: temozolomide solutions in various buffers; type: physicochemical
[4] = solid powder, 1 month 40° C./75% RH; weight percentage
Experimental: In the tested formulations, the weight percentages of certain degradation products were measured.

SMILES: Cn1nnc2c(C(N)=O)ncn2c1=O [Temozolomide, 3,4-dihydro-3-methyl-4-oxoimidazo[5,1-d]-as-tetrazine-8-carboxamide]
- pH at which stable [1]: less than 5
- Observation (dissolution of temozolomide) ([2]; Prep Temp 10 ° C., About 3 hrs): Temozolomide did not dissolve
- Observation (dissolution of temozolomide) ([2]; Prep Temp 15 ° C., About 2 hrs): Temozolomide did not dissolve
- Observation (dissolution of temozolomide) ([2]; Prep Temp 18 ° C.): Temozolomide dissolved
- Time (to dissolve) ([2]; Prep Temp 18 ° C.): About 0.5 to 0.75 hrs
- Observation (dissolution of temozolomide) ([2]; Prep Temp 19 ° C.): Temozolomide dissolved
- Time (to dissolve) ([2]; Prep Temp 19 ° C.): About 0.5 to 0.75 hrs
- Observation (dissolution of temozolomide) ([2]; Prep Temp 20 ° C.): Temozolomide dissolved
- Time (to dissolve) ([2]; Prep Temp 20 ° C.): About 0.5 to 0.75 hrs
- Observation (dissolution of temozolomide) ([2]; Prep Temp 24 ° C.): Temozolomide dissolved
- Time (to dissolve) ([2]; Prep Temp 24 ° C.): About 0.5 to 0.75 hrs
- Observation (dissolution of temozolomide) ([2]; Prep Temp 25 ° C.): Temozolomide dissolved
- Time (to dissolve) ([2]; Prep Temp 25 ° C.): About 0.5 to 0.75 hrs
- Stability after 1 hr (temozolomide as % of amount originally added) ([3]; 0.1N HCl pH = 1.1): 101.7%
- Stability after 5 hr ([3]; 0.1N HCl pH = 1.1): 100.2%
- Stability after 6 hr ([3]; 0.1N HCl pH = 1.1): 99.8%
- Stability after 1 hr (temozolomide as % of amount originally added) ([3]; Acetate Buffer pH = 4.5): 99.2%
- Stability after 5 hr ([3]; Acetate Buffer pH = 4.5): 98.1%
- Stability after 6 hr ([3]; Acetate Buffer pH = 4.5): 98.2%
- Stability after 1 hr (temozolomide as % of amount originally added) ([3]; Hydrochloride Buffer pH = 2.2): 99.1%
- Stability after 5 hr ([3]; Hydrochloride Buffer pH = 2.2): 98.6%
- Stability after 6 hr ([3]; Hydrochloride Buffer pH = 2.2): 99.0%
- Stability after 5 min ([3]; Phosphate Buffer pH = 6.8): 100.1%
- Stability after 10 min ([3]; Phosphate Buffer pH = 6.8): 99.8%
- Stability after 15 min ([3]; Phosphate Buffer pH = 6.8): 99.0%
- Stability after 30 min ([3]; Phosphate Buffer pH = 6.8): 98.0%
- Stability after 5 min ([3]; Phosphate Buffer pH = 7.5): 99.4%
- Stability after 10 min ([3]; Phosphate Buffer pH = 7.5): 99.0%
- Stability after 15 min ([3]; Phosphate Buffer pH = 7.5): 97.8%
- Stability after 30 min ([3]; Phosphate Buffer pH = 7.5): 90.5%
- Stability after 5 min ([3]; Water): 99.9%
- Stability after 10 min ([3]; Water): 99.6%
- Stability after 15 min ([3]; Water): 98.8%
- Stability after 30 min ([3]; Water): 97.6%
- Dacarbazine-related compound A [4]: 8.4%
- Max. Unknown [4]: 0.22%
